Data: patent publication US20240043473A1, “NOOTROPIC PEPTIDES FOR TREATING LYSOSOMAL STORAGE DISEASES” (Phoenix Nest Inc., priority 2021, published 2024)
Entries after “also recorded” stand apart in the source; their conditions may differ. No end group written: not given here.

How the values were obtained:
[1] = test system: hippocampus CA1 pyramidal cells in hippocampal slices from Hgsnat^Geo and Hgsnat^P311L mice; assay: Evoked synaptic currents (AMPA EPSCs, NMDA EPSCs, paired pulse) by stimulating Schaffer collaterals in hippocampal slices; assay type: cell-based, mouse
Protocol: Model and Developmental time points: Hippocampal slices from Hgsnat^Geo and Hgsnat^P311L mice; P14-20.
Method: Synaptic currents (composite glutamatergic EPSCs, AMPA EPSCs and NMDA EPSCs) were evoked by stimulating Schaffer collaterals and recordings were conducted from the hippocampus CA1 pyramidal cells in hippocampal slices from Hgsnat^Geo and Hgsnat^P311L mice. Paired pulse stimulation protocol with increasing stimulus intervals was used to identify the locus of deficit.
Acute hippocampal slices were prepared as follows. Briefly, animals were anaesthetized deeply with isoflurane and decapitated. The brain was dissected carefully and transferred rapidly into an ice-cold (0-4° C.) solution containing the following (in mM): 250 sucrose, 2 KCl, 1.25 NaH2PO4, 26 NaHCO3, 7 MgSO4, 0.5 CaCl2 and 10 glucose, pH 7.4. The solution was oxygenated continuously with 95% O2 and 5% CO2, 330-340 mOsm/L. Transverse hippocampal slices (thickness, 300 μm) were cut using a vibratome (VT1000S; Leica Microsystems), transferred to a bath at room temperature (23° C.) with standard ACSF at pH 7.4 containing the following (in mM): 126 NaCl, 3 KCl, 1 NaH2PO^4, 25 NaHCO3, 2 MgSO4, 2 CaCl2), 10 glucose, continuously saturated with 95% 02 and 5% CO2 and allowed to recover for 1 h. During the experiments, slices were transferred to the recording chamber at physiological temperature (30-33° C.) continuously perfused with standard ACSF, as described above, at 2 ml/min. Pyramidal CA1 neurons from the hippocampus were identified visually using a 40× water immersion objective. Whole-cell patch-clamp recordings were obtained from single cells in voltage- or current-clamp mode and only 1 cell per slice was recorded to enable post-hoc identification and immunohistochemical processing. Recording pipettes (4-6 MΩ) were filled with a K-gluconate based solution for voltage-clamp recordings (in mM): 130 K-gluconate, 10 KCl, 5 diNa-phosphocreatine. 10 HEPES, 2.5 MgCl2, 0.5CaCl2,1 EGTA, 3 ATP-Tris, 0.4 GTP-Li, 0.3% biocytin, pH 7.2-7.4, 280-290 mOsm/L.
We further studied evoked glutamatergic EPSCs in CA1 pyramidal neurons at P14-20 by stimulating Schaffer Collateral afferents. […] The effect is aggravated at higher IPI, as both the readily releasable and reserve pools of synaptic vesicles get progressively emptied.

[2] = test system: somatosensory cortex and hippocampus of Hgsnat^P304L mice; assay: Brain immunohistochemistry after chronic treatment (synaptic markers, astrocytosis, microgliosis, lysosomal puncta); assay type: in vivo, mouse
Protocol: Mouse brains were collected from animals perfused with 4% PFA in PBS and post-fixed in 4% PFA in PBS overnight. Brains were cryopreserved in 30% sucrose for 2 days at 4° C., embedded in Tissue-Tek® OCT Compound and stored at −80° C. Brains were cut in 40 μm-thick sections and stored in cryopreservation buffer (0.05 M sodium phosphate buffer pH 7.4, 15% sucrose, 40% ethylene glycol) at −20° C. pending immunohistochemistry. Mouse brain sections were washed 3 times with PBS and permeabilized/blocked by incubating in 5% bovine serum albumin (BSA), 0.3% Triton X-100 in PBS for 1 h at room temperature. Incubation with primary antibodies, diluted in 1% BSA, 0.3% Triton X-100 in PBS, was performed overnight at 4° C.
The mouse brain sections were washed 3 times with PBS and counterstained with Alexa Fluor-labeled secondary antibodies (dilution 1:400) for 2 h at room temperature. After washing 3 times with PBS, the mouse brain sections were treated with TrueBlack® Lipofuscin Autofluorescence Quencher (Biotium, 23007, dilution 1:10) for 1 min, and then again washed 3 times with PBS. The slides were mounted with Prolong Gold Antifade mounting reagent with DAPI (Invitrogen, P36935) and analyzed using Leica DM 5500 Q upright confocal microscope (10×, 40×, and 63× oil objective, N.A. 1.4). Images were processed and quantified using ImageJ 1.50i software (National Institutes of Health. Bethesda, MD, USA) in a blinded fashion. Panels were assembled with Adobe Photoshop.
Starting from 3 weeks of age, WT C57B16 and homozygous Hgsnat^P304L male and female mice were randomly divided in treatment and control groups (6-13 mice/sex/genotype/treatment; see Table I). The control group was daily administered with saline (5 μL to each nostril), while for the treatment group, saline was supplemented with 125 µg of AVP6/mL, which would result in a dose of approximately 50 μg/kg BW/day. The peptide formulation was prepared once, aliquoted and kept frozen at −80° C. until use. At 4 months, all mice were studied by EPM, OF, YM and NOR behavioral tests. Administration of the drug or saline was continued through the days on which the assays were conducted. Then approximately at 5 months 4-5 mice in each group were sacrificed. Their blood plasma was collected, and their tissues were either snap-frozen or fixed and cryopreserved to analyze CNS pathology as described above. For the remaining mice, treatment was continued and their behaviour was studied again at the age of 6 months using OF. NOR and YM tests. Starting from the age of 8 months, Hgsnat^P304L treated and untreated mice were daily studied for the signs of urinary retention. When such signs were detected, the mice were studied by ERG and sacrificed within 1-2 days. Finally, the remaining treated and untreated WT mice were studied by ERG and sacrificed at the end of the study, approximately at 10 months of age.
After completion of the behavioural analysis at 4 months, 50% of mice in each group were sacrificed for analysis of CNS pathology and biochemical testing. To study the effect of the treatment on synaptic architecture, we have stained the brain sections for presynaptic (VGLUT1) and postsynaptic (PSD-95, BDNF) markers and quantified their levels in the CA1 area of hippocampi and in layers 3-4 of somatosensory cortex.
The terminal CNS pathology was studied using the same set of biomarkers as at 4 months, either by IHC (astrocytosis, microgliosis, synaptic markers SYN1, PSD-95, […], BDNF) or by biochemical (total β-hexosaminidase activity, expression levels of inflammatory cytokines) assays.

[3] = 10 μM bath application, P14-20, Hgsnat^P311L (P304L) slices
[4] = chronic daily 50 μg/kg BW from 3 weeks, Hgsnat^P304L mice at sacrifice (10-11 months)

AVP6: N-terminally acetylated Semax, a nootropic peptide having the amino acid sequence of MEHFPGP (SEQ ID NO:1) (Ac-MEHFPGP)
evoked AMPA current deficits [1, 3]: partially recovered deficits in AMPA currents; also recorded: not in AVP6-treated brain slices
evoked NMDA current deficits [1, 3]: not in AVP6-treated brain slices
paired pulse (PPF/PPR) deficits at lower inter-pulse intervals ([1]; 10 μM, IPI 100-200 ms Hgsnat^Geo, 100-300 ms Hgsnat^P311L): significantly recovered PPF deficits; also recorded: partially rescued deficits in the paired pulse stimulation; also recorded: is restored by treatment with AVP6
paired pulse (PPF) deficits at higher inter-pulse intervals ([1]; 10 μM, IPI 400 and 500 ms): not at higher (400 and 500 ms) IPI
recording lost (suggesting neurotoxicity) ([1]; 50 μM): 5 of 11
PPF deficits at 100, 200, 300 and 400 ms IPI ([1]; 50 μM, Hgsnat^P304L slices): PPF deficits were rescued
levels of synaptic markers VGLUT1, PSD-95 and BDNF in CA1 hippocampus and somatosensory cortex ([2]; chronic daily 50 μg/kg BW from 3 weeks, Hgsnat^P304L mice at 5 months): are rescued
GFAP+ astrocytes and CD68+ activated microglia in cortex and hippocampus ([2]; chronic daily 50 μg/kg BW from 3 weeks, Hgsnat^P304L mice at 5 months, vs saline): normalizes astrocytosis and microgliosis; also recorded: are reduced
levels of post-synaptic proteins PSD-95 and BDNF [2, 4]: completely recovered; also recorded: are rescued in hippocampus and partially rescued in the somatosensory cortex
levels of presynaptic proteins GLUT1 (VGLUT1) and SYN1 [2, 4]: either increased in the AVP6-treated as compared with saline-treated Hgsnat^P304L mice, or remained significantly lower than those in WT animals; also recorded: are rescued in hippocampus and partially rescued in the somatosensory cortex
levels and sizes of LAMP2+/HS+ or GM2-ganglioside+ lysosomal puncta in cortical/hippocampal neurons ([2]; chronic daily 50 μg/kg BW, Hgsnat^P304L mice at 5 months, vs saline): remained similar
markers of astrocytosis and microgliosis, GFAP and CD68 ([2]; chronic daily 50 μg/kg BW, Hgsnat^P304L mice at 10-11 months, vs saline, cortex levels remained above WT): significantly reduced; also recorded: reduces it; also recorded: reduces levels of activated GFAP+ astrocytes in the cortex (D) and CD68+ microglia in both cortex and hippocampus
LAMP2 levels in brain sections compared with WT ([2]; chronic daily 50 μg/kg BW, Hgsnat^P304L mice at terminal timepoint): remained significantly increased
